According to patent US20230365582A1, “NOVEL COMPOUNDS HAVING INHIBITORY ACTIVITY ON PROSTAGLANDIN E2 RECEPTOR AND USES THEREOF” (KANAPH THERAPEUTICS INC., priority 2020, published 2023):

Key:
[1] = biological target: T1, hEP4 (Homo sapiens, UniProt P35408); assay: hEP4 cAMP assay; format: cell-based; conditions: HEK293 cells overexpressing hEP4; PGE2 agonist 20 nM; graded per Table 21; read-out: IC50 (nM) EP4 cAMP
T1 construct: expressed in transfected cells; host or cells: HEK293
Outline: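 HEK293 cells overexpressing hEP4, starved 4 h, were treated with compound (10 μM-0.001 nM) plus 20 nM PGE2 (EC50-80) in HBSS buffer with 0.5 mM IBMX for 18.5 min at room temperature. cAMP was read by TR-FRET (665/615 nm) as % of DMSO control; IC50 from 4-parameter fit, median of multiple experiments.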

[2] = biological target: T2, hEP2 (Homo sapiens, UniProt P43116); assay: hEP2 cAMP assay; format: cell-based; conditions: HEK293 cells overexpressing hEP2; PGE2 agonist 400 pM; graded per Table 21; read-out: IC50 (nM) EP2 cAMP
T2 construct: expressed in transfected cells; host or cells: HEK293
T2 sequence (P43116 whole entry): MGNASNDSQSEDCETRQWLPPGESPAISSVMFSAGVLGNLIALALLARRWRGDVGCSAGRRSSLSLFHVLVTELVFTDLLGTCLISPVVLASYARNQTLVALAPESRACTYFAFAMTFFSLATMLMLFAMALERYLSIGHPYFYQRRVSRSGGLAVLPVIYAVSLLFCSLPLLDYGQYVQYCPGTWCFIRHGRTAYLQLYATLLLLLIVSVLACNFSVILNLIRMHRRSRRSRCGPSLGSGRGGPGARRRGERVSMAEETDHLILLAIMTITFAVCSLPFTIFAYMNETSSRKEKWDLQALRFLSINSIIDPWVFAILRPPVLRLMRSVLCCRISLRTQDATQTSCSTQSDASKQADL
Outline: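 HEK293 cells overexpressing hEP2, serum-starved 4 h, then 1,000 cells/well treated with compound (10 μM–0.001 nM) plus 400 pM PGE2 (about EC50-80) in HBSS buffer with 0.5 mM IBMX for 12 min at room temperature. cAMP measured by TR-FRET (665/615 nm) as % of DMSO control; IC50 from 4-parameter fit, median of repeats.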

T1 sequence (P35408 whole entry): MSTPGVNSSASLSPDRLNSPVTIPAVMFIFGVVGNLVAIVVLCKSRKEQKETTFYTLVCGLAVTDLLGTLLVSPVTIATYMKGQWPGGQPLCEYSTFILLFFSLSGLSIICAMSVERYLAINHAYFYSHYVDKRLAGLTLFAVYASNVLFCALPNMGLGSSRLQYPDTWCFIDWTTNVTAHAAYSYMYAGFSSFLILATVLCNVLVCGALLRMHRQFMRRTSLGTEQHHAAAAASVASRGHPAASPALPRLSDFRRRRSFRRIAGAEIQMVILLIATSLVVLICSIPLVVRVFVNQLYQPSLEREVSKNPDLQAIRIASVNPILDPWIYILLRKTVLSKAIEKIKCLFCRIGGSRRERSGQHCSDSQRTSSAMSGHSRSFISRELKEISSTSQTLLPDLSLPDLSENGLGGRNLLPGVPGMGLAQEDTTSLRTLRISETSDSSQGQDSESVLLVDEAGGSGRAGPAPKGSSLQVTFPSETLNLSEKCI

Row | SMILES | IC50 [1] | IC50 [2]
1 | Cc1sc(C)c(C(=O)NC2CC3(C2)CC(C(=O)O)C3)c1Cc1ccc(-c2cc(F)cc(CO)c2)cc1 (stereo not shown) [Example 60, 6-(4-((3′-fluoro-5′-(hydroxymethyl)-[1,1′-biphenyl]-4-yl)methyl)-2,5-dimethylthiophene-3-carboxamido)spiro[3.3]heptane-2-carboxylic acid] | < 500 nM | 5000 to 10000 nM
2 | COc1cc(-c2ccc(Cc3c(C)sc(C)c3C(=O)NC3CC4(C3)CC(C(=O)O)C4)cc2)cc(C2(O)COC2)c1 (stereo not shown) [Example 61, 6-(4-((3′-(3-hydroxyoxetane-3-yl)-5′-methoxy-[1,1′-biphenyl]-4-yl)methyl)-2,5-dimethylthiophene-3-carboxamido)spiro[3.3]heptane-2-carboxylic acid] | 500 to 5000 nM | > 10000 nM
3 | COc1cc(-c2ccc(Cc3c(C)sc(C)c3C(=O)NC3CC4(C3)CC(C(=O)O)C4)cc2)cc(N2CCC2=O)c1 (stereo not shown) [Example 62, 6-(4-((3′-methoxy-5′-(2-oxoazetidin-1-yl)-[1,1′-biphenyl]-4-yl)methyl)-2,5-dimethylthiophene-3-carboxamido)spiro[3.3]heptane-2-carboxylic acid] | < 500 nM | 500 to 5000 nM
4 | [H][C@]1(C(=O)O)C[C@]2(C[C@H](NC(=O)c3c(C)sc(C)c3Cc3ccc(-c4cc(OC)cc(N5CCC5=O)c4)cc3)C2)C1 (stereo partly drawn) [Example 63, (2R,4R,6R)-6-(4-((3′-methoxy-5′-(2-oxoazetidin-1-yl)-[1,1′-biphenyl]-4-yl)methyl)-2,5-dimethylthiophene-3-carboxamido)spiro[3.3]heptane-2-carboxylic acid] | < 500 nM | < 500 nM
5 | Cc1sc(C)c(C(=O)NC2CC3(C2)CC(C(=O)O)C3)c1Cc1ccc(-c2cc(F)cc(CN)c2)cc1 (stereo not shown) [Example 64, 6-(4-((3′-(aminomethyl)-5′-fluoro-[1,1′-biphenyl]-4-yl)methyl)-2,5-dimethylthiophene-3-carboxamido)spiro[3.3]heptane-2-carboxylic acid] | 500 to 5000 nM | > 10000 nM
6 | Cc1sc(C)c(C(=O)NC2CC3(C2)CC(C(=O)O)C3)c1Cc1ccc(-c2cc(F)cc(C3CNC3)c2)cc1 (stereo not shown) [Example 65, 6-(4-((3′-(azetidin-3-yl)-5′-fluoro-[1,1′-biphenyl]-4-yl)methyl)-2,5-dimethylthiophene-3-carboxamido)spiro[3.3]heptane-2-carboxylic acid] | 500 to 5000 nM | > 10000 nM
7 | COc1cc(CN)cc(-c2ccc(Cc3c(C)sc(C)c3C(=O)NC3CC4(C3)CC(C(=O)O)C4)cc2)c1 (stereo not shown) [Example 66, 6-(4-((3′-(aminomethyl)-5′-methoxy-[1,1′-biphenyl]-4-yl)methyl)-2,5-dimethylthiophene-3-carboxamido)spiro[3.3]heptane-2-carboxylic acid] | 500 to 5000 nM | > 10000 nM
8 | Cc1sc(C)c(C(=O)NC2CC3(C2)CC(C(=O)O)C3)c1Cc1ccc(C2CCCCC2)cc1 (stereo not shown) [Example 67, 6-(4-(4-cyclohexylbenzyl)-2,5-dimethylthiophene-3-carboxamido)spiro[3.3]heptane-2-carboxylic acid] | 5000 to 10000 nM | > 10000 nM
9 | Cc1sc(C)c(C(=O)NC2CC3(C2)CC(C(=O)O)C3)c1Cc1ccc(C2CCNCC2)cc1 (stereo not shown) [Example 68, 6-(2,5-dimethyl-4-(4-(piperidin-4-yl)benzyl)thiophene-3-carboxamido)spiro[3.3]heptane-2-carboxylic acid] | > 10000 nM | > 10000 nM
10 | Cc1sc(C)c(C(=O)NC2CC3(C2)CC(C(=O)O)C3)c1Cc1ccc(-c2ccc(F)cc2)cc1 (stereo not shown) [Example 69, 6-(4-((4′-fluoro-[1,1′-biphenyl]-4-yl)methyl)-2,5-dimethylthiophene-3-carboxamido)spiro[3.3]heptane-2-carboxylic acid] | < 500 nM | 500 to 5000 nM
11 | Cc1sc(C)c(C(=O)NC2CC3(C2)CC(C(=O)O)C3)c1Cc1ccc(-c2cc(F)cc(C#N)c2)cc1 (stereo not shown) [Example 70, 6-(4-((3′-cyano-5′-fluoro-[1,1′-biphenyl]-4-yl)methyl)-2,5-dimethylthiophene-3-carboxamido)spiro[3.3]heptane-2-carboxylic acid] | < 500 nM | 5000 to 10000 nM
